Counter-ions that a name gives are not always drawn.
Columns and labels:
[1] = tested on: mutated KRAS and wild-type KRAS in tumor cells; conditions: cited from earlier work
[2] = Human liver microsome stability; assay type: in vitro ADME; conditions: human liver microsomes, 30 min, 37 °C, NADPH; read-out: Remaining percentage of compound after incubation for 30 min
Procedure: The human liver microsome stability test was performed by incubating the compound and human liver microsomes in vitro. First, the compound to be tested was prepared into a 10 mM stock solution in DMSO solvent, and then the compound was diluted to 0.5 mM with acetonitrile. Human liver microsomes (Corning) were diluted with PBS into a microsome/buffer solution, and the solution was used to dilute 0.5 mM compound into a working solution, in which the concentration of the compound was 1.5 μM, and the concentration of human liver microsomes was 0.75 mg/mL. A deep-well plate was taken, 30 μL of the working solution was added per well, and then 15 μL of pre-heated 6 mM NADPH solution was added thereto to initiate a reaction, and the reaction was incubated at 37 °C At 0, 5, 15, 30, and 45 min of the incubation, 135 μL of acetonitrile was added to the corresponding wells to terminate the reaction. After the reaction was terminated with acetonitrile at the last time point of 45 min, the deep-well plate was vortexed for 10 min (600 rpm/min), and then centrifuged for 15 min. After centrifugation, the supernatant was collected, and added with purified water in a ratio of 1:1 to perform LC-MS/MS detection. A ratio of a peak area of compound to a peak area of internal standard at each time point was obtained, and the peak area ratios of the compound at 5, 15, 30, and 45 min were compared with the peak area ratio at 0 min to calculate the remaining percentage of the compound at each time point. T1/2 was calculated by using GraphPad 5 software.

[3] = Variable temperature XRPD (VT-XRPD) of crystal forms; assay type: physicochemical; conditions: for crystal form on N2 purging: purged with N2 for 20 minutes; for crystal form on heating to 150 °C: N2, heated to 150 °C and cooled
From the text: The XRPD pattern was collected on an X-ray powder diffraction analyzer produced by PANalytacal, and the scanning parameters are shown in Table 2.
The crystal form A of the compound of formula I of Example 2 was identified using variable temperature XRPD (VT-XRPD).

[4] = Influence of vacuum drying on crystal form A (XRPD, HPLC purity); assay type: physicochemical; conditions: vacuum drying 60 °C/80 °C, 4 hours
Procedure: In order to evaluate the influence of the drying conditions on the crystal form A of the compound of formula I, the changes of the sample before and after vacuum drying of the crystal form A of the compound of formula I under the condition of 60 °C/80 °C for 4 hours were respectively investigated. The XRPD, ^1H NMR, and HPLC purity of the dried sample were tested.

[5] = Solid state stability (25 °C/60% RH and 40 °C/75% RH, one week; XRPD and HPLC); assay type: physicochemical; conditions: open condition, one week, 25 °C/60% RH and 40 °C/75% RH
Procedure: The purity test, dynamic solubility test, and stability test in the assay were measured with an Agilent 1260 high-performance liquid chromatograph, and the salt formation molar ratio of ions was tested by ion chromatography, and the analytical conditions are shown in Table 5 and Table 6.

[6] = Hygroscopicity by dynamic vapor sorption (DVS); assay type: physicochemical; conditions: 25 °C
Procedure: The dynamic vapor sorption (DVS) curve was collected on DVS IntrInsic from SMS (surface measurement systems). The relative humidity at 25 °C was corrected using the deliquescence points of LiCl, Mg(NO3)2, and KCl.
Starting from 0% RH or room humidity, the test collected the mass change percentage of the sample as the humidity changed (0% RH to 95% RH) under constant temperature conditions of 25 °C The results of the DVS test and the XRPD results of the samples before and after the DVS test are shown in FIG. 113 to FIG. 122.

[7] = Dynamic solubility in water, SGF, FaSSIF and FeSSIF; assay type: physicochemical; conditions: for solubility in water, SGF, FaSSIF and FeSSIF: 37 °C, 10 mg/mL feed, 1, 4, 24 hours; for change in crystal form after solubility test: XRPD after solubility test
Procedure: Purified water was added to complete dissolution.

Compound | crystal form on N2 purging [3] | solid state stability [5] | moisture behaviour higher than 10% RH [6] | moisture behaviour lower than 10% RH [6] | solubility in water, SGF, FaSSIF and FeSSIF [7] | change in crystal form after solubility test [7] | crystal form on heating to 150 °C [3] | further results
CNCc1ccccc1-c1csc([C@@H](C)Nc2nc(C)nc3cc(OC)c(OC)cc23)c1 [BAY-293] |  |  |  |  |  |  |  | reduction of activity of mutated and wild-type KRAS in tumor cells [1]: can effectively reduce the activity of mutated KRAS and wild-type KRAS in tumor cells
Cc1nc(N[C@H](C)c2cccc(C(F)(F)F)c2C)c2cn(C3(CF)CC3)c(=O)cc2n1 [Control compound 1, reference compound] |  |  |  |  |  |  |  | remaining at 0.5 h [2]: 70.2%
Cc1nc(N[C@H](C)c2cccc(S(F)(F)(F)(F)F)c2)c2cn(C3(CF)CC3)c(=O)cc2n1 [crystal form A of the compound of formula I] | transformed into a new crystal form B | good stability | absorb more moisture and gain more weight with the increase of humidity | rapidly dehydrate | high solubility | no change in crystal form is observed |  | change in purity before and after drying (HPLC) [4]: no significant change in purity was observed; crystal form after vacuum drying ([4]; exposure to 19 °C/27% RH 10-15 min): still the crystal form A of the compound of formula I
Cc1nc(N[C@H](C)c2cccc(S(F)(F)(F)(F)F)c2)c2cn(C3(CF)CC3)c(=O)cc2n1 [crystal form A of the fumarate salt of the compound of formu] | a peak shift was observed | good stability | absorb more moisture and gain more weight with the increase of humidity | rapidly dehydrate | high solubility | no change in crystal form is observed | No change in the crystal form was observed | crystal form on exposure to air ([3]; exposed to air after N2 purging/heating): transcrystallized back to the crystal form A of the fumarate salt
Cc1nc(N[C@H](C)c2cccc(S(F)(F)(F)(F)F)c2)c2cn(C3(CF)CC3)c(=O)cc2n1 [crystal form A of the methanesulfonate salt of the compound ] |  | good stability |  |  | high solubility |  | no change in the crystal form was observed | hygroscopicity ([6]; 0% RH to 95% RH): slightly hygroscopic
